Measured values taken from paper PMC7297862, “In Vivo Tumor Growth Inhibition and Antiangiogenic Effect of Cyclic NGR Peptide-Daunorubicin Conjugates Developed for Targeted Drug Delivery” (Pathology Oncology Research, 2019).
Read-outs that look alike come from different tables or passages of the source.

Assays:
[1] = test system: CD13(+) Kaposi's sarcoma cells (KS); experiment: MTT antiproliferative assay on KS cells; assay type: cell-based; conditions: Homo sapiens, 24 h treatment followed by 48 h incubation in drug free medium, average ± SD
Procedure: (§1) KS (Kaposi’s sarcoma) derived from human Kaposi sarcoma and HT-29 (human colorectal adenocarcinoma) cell line obtained from ATCC were cultured in RPMI 1640 medium with glutamine (Roswell Park Memorial Institute Medium, Lonza, Basel, Switzerland), and MRC-5 (normal fibroblast) cells were cultured in DMEM (Dulbecco’s Modified Eagle’s Medium, Lonza). All media were supplemented with 10% heat-inactivated FBS (Fetal Bovine Serum, Euroclone, Milan, Italy), and with 1% penicillin/streptomycin (Sigma-Aldrich). Cells were cultured in sterile T25 or T75 flasks with ventilation cap (Sarstedt, Nümbrecht, Germany) at 37 °C in a humidified atmosphere with 5% CO2.
(§2) For evaluation of in vitro antiproliferative activity of NGR-Dau conjugates and free Dau, cell viability was determined by MTT assay (3-(4,5-dimethylthiazol-2-yl)-2,5-diphenyl-tetrazolium bromide (Sigma Aldrich)). […] The formazan crystals were dissolved in 100 μL of a 1:1 solution of DMSO (Sigma-Aldrich):EtOH (Molar Chemicals) and the absorbance was measured after 15 min at λ = 570 nm by using a microplate reader (Bio-Rad, model 550, Hercules, CA, USA). The IC50 values of the conjugates and free drug were calculated using GraphPad Prism 6 (GraphPad Software, San Diego, CA, USA). […]

[2] = test system: CD13(−) HT-29 human colorectal adenocarcinoma cells; experiment: MTT antiproliferative assay on HT-29 cells; assay type: cell-based; conditions: average ± SD
Procedure: as §1, §2

[3] = MTT antiproliferative assay on MRC-5 cells; assay type: cell-based; conditions: human, MRC-5 cells (normal, non-cancerous human fibroblasts), 72 h continuous treatment, average ± SD
Procedure: as §1, §2

[4] = test system: subcutaneous Kaposi's sarcoma bearing SCID mice; experiment: Subcutaneous Kaposi's sarcoma model; assay type: in vivo, mouse; conditions: KS s.c. model, free Dau 1 mg/kg 5 treatments
Text: (§3) The immunodeficient SCID mice on a C.B.-17 background were bred in specific opportunistic and pathogen free isolator breeding rooms. The breeding isolator was supplied with corn-cob bedding and standard VRF1 rodent chow and with acidified (pH = 3) sterilized distilled water. The mice from the breeding rooms were used for the subcutaneous model of KS and orthotopic model of human colon cancer. They were held in filter-top boxes in the experimental barrier rooms, and every box-opening was performed under a Class 100 laminar-flow hood. The animal housing density was in accordance with the international recommendations. The cage components, corn-cob bedding and food (VRF1 from Special Diet Services) were steam-sterilized in an autoclave (121 °C, 20 min). The animals used in these studies were cared for according to the “Guiding Principles for the Care and Use of Animals” based upon the Helsinki declaration, and they were approved by the local ethical committee. Permission license for breeding and performing experiments with laboratory animals: PEI/001/1738-3/2015 and PEI/001/2574–6/2015.
(§4) Kaposi’s sarcoma (KS) cells were injected into SCID female mice (19-24 g) (s.c.), 3 × 10^6 cells per animal in volume of 200 μL M199 medium per animal. Treatment started 35 days after cell inoculation when average tumor volume was 66 mm^3, by i.p. administration. […] Treatment volume was 0.2 mL/animal. Animal weight and tumor volumes were measured initially when the treatment started and at periodic intervals according to the treatment schedule. A digital caliper was used to measure the longest (a) and the shortest diameter (b) of a given tumor. The tumor volume was calculated using the formula V = ab^2 × π/6, whereby a and b represent the measured parameters (length and width). The experiment was terminated on day 70 after tumor transplantation (day 36 of treatment). The mice from all groups were sacrificed by cervical dislocation. Their primary tumors and livers were harvested and weighed.

[5] = test system: orthotopic HT-29 human colon carcinoma bearing SCID mice; experiment: Orthotopic HT-29 human colon tumor model; assay type: in vivo, mouse; conditions: orthotopic HT-29 model
Text: as §3
HT-29 human colon cancer cells were injected into SCID female mice subcutaneously (s.c.), 3 × 10^6 cells per animal in volume of 200 μL M199 medium per animal, in order to establish tumor for transplantation. After 2 weeks, the mice with palpable tumors were sacrificed by cervical dislocation, and the subcutaneous tumor was dissected out aseptically. Tumor pieces of 2 mm^3 were transplanted orthotopically, under aseptic conditions into anesthetized (narcotic mixture: tiletamine, zolazepam, xylazine, butorphanol) SCID female mice (19-25 g). A small midline incision (0.5 cm) was made and the colorectal part of the intestine was exteriorized. Serosa of the site where the tumor pieces were to be implanted were removed. Tumor tissue fragments of HT-29 human colon tumor were implanted on the top of the animal intestine; an 8/0 surgical (polypropylene) suture was used to suture it on the wall of the intestine. The intestine was returned to the abdominal cavity, and the abdominal wall was closed with 4/0 surgical (polyglycolic acid) sutures. The wound was sterilized and the animals were kept in a sterile environment. On the next day, no sign of pain and/or stress of the mice was observed. The treatments started 6 days after tumor transplantation by i.p. administration of the compounds dissolved in distilled water for injection. 8 mice per group were used.
One group of mice were treated with free Dau (1 mg/kg body weight) on days 6, 13 and 20 after tumor transplantation. Animal groups treated with compounds 1 and 2 were administered with a dose of 10 mg/kg Dau content (33.8 and 33.5 mg/kg of each conjugate, respectively) on days 6, 8, 10, 13, 17, 20 and 24 after tumor transplantation. Control group was treated with sterile water as solvent in 0.2 mL volume per animal. The experiment was terminated on day 27 after tumor transplantation (day 22 of treatment). Daunorubicin treated group was terminated on day 24 after tumor transplantation (day 19 of treatment) due to significant weight loss of the animals. The mice from all groups were sacrificed by cervical dislocation. Their primary tumors and livers were harvested and weighed, while metastases were counted in other organs.

[6] = test system: subcutaneous Kaposi's sarcoma primary tumor; experiment: Proliferation index (KI-67) in KS primary tumor; assay type: in vivo, mouse; conditions: percentage printed in Fig. 7a
Procedure: as §4, with “The experiment was terminated on day 70 after tumor transplantation (day 36 of treatment). The mice from all groups were sacrificed by cervical dislocation. Their primary tumors and livers were harvested and weighed.” left out
(§5) The routinely formalin-fixed tumors were dehydrated in a graded series of ethanol, infiltrated with xylene and embedded into paraffin at a temperature not exceeding 60 °C. […] The KI-67-positive tumor cells were counted manually per fields of vision under light microscope (400-fold magnification), and 3 fields of view per tumor were evaluated. Proliferation index was calculated as percentage of KI-67 positive cells from all cells in the field of view. The CD31-positive blood vessels were counted manually using light microscope (200-fold magnification), whereby 3 fields of view per tumor were evaluated, and blood vessel density was calculated as number of blood vessels per mm^2.

[7] = test system: orthotopic HT-29 human colon primary tumor; experiment: Proliferation index (KI-67) in HT-29 primary tumor; assay type: in vivo, mouse
Procedure: (§6) HT-29 human colon cancer cells were injected into SCID female mice subcutaneously (s.c.), 3 × 10^6 cells per animal in volume of 200 μL M199 medium per animal, in order to establish tumor for transplantation. After 2 weeks, the mice with palpable tumors were sacrificed by cervical dislocation, and the subcutaneous tumor was dissected out aseptically. Tumor pieces of 2 mm^3 were transplanted orthotopically, under aseptic conditions into anesthetized (narcotic mixture: tiletamine, zolazepam, xylazine, butorphanol) SCID female mice (19-25 g). A small midline incision (0.5 cm) was made and the colorectal part of the intestine was exteriorized. Serosa of the site where the tumor pieces were to be implanted were removed. […]
(§7) One group of mice were treated with free Dau (1 mg/kg body weight) on days 6, 13 and 20 after tumor transplantation. […] Their primary tumors and livers were harvested and weighed, while metastases were counted in other organs.
(§8) The routinely formalin-fixed tumors were dehydrated in a graded series of ethanol, infiltrated with xylene and embedded into paraffin at a temperature not exceeding 60 °C. […] The KI-67-positive tumor cells were counted manually per fields of vision under light microscope (400-fold magnification), and 3 fields of view per tumor were evaluated. Proliferation index was calculated as percentage of KI-67 positive cells from all cells in the field of view. […]

[8] = test system: subcutaneous Kaposi's sarcoma primary tumor; experiment: Vascularization (CD31 blood vessel density) in KS primary tumor; assay type: in vivo, mouse; conditions: percentage printed in Fig. 7c
Procedure: as §4, with “The experiment was terminated on day 70 after tumor transplantation (day 36 of treatment). The mice from all groups were sacrificed by cervical dislocation. Their primary tumors and livers were harvested and weighed.” left out
as §5

[9] = test system: orthotopic HT-29 human colon primary tumor; experiment: Vascularization (CD31 blood vessel density) in HT-29 primary tumor; assay type: in vivo, mouse; conditions: percentage printed in Fig. 7d
Procedure: as §6, §7, §8

COc1cccc2c1C(=O)c1c(O)c3c(c(O)c1C2=O)C[C@@](O)(C(C)=O)C[C@@H]3O[C@H]1C[C@H](N)[C@H](O)[C@H](C)O1 [Dau, daunorubicin] gave an IC50 [1] of 100 ± 10 nM, an IC50 ([2]; 24 h treatment followed by 48 h incubation in drug free medium, read-out: HT-29 (24 h) IC50) of 90 ± 10 nM and an IC50 ([2]; 72 h continuous treatment, read-out: HT-29 (72 h) IC50) of 100 ± 10 nM. The IC50 at 72 h [3] was 250 ± 60 nM, the “decrease of animal body weight at end of experiment” value ([4]; conjugates 10 mg/kg Dau content i.p. 11 treatments, day 70 after cell inoculation, 5 animals per group) was 16.7% and the “inhibition of tumor volume compared to control” value ([4]; conjugates 10 mg/kg Dau content i.p. 11 treatments, end of experiment (day 70)) was 18.6%. For the same compound, the “decrease of liver/body weight ratio in comparison to control” value ([4]; day 70, p < 0.05) was 12.3%, the “inhibition of tumor weight compared to control” value ([5]; conjugates 10 mg/kg Dau content 7 treatments (day 27), free Dau 1 mg/kg 3 treatments (day 24)) was 67.7% and the “animal body weight during treatment” value ([5]; conjugates 10 mg/kg Dau content i.p. 7 treatments, free Dau 1 mg/kg 3 treatments, days after tumor transplantation, 8 animals per group) was “significantly decreased body weight from day 17”. For the same compound, the “liver/body weight ratio, percentage of control” value ([5]; conjugates day 27, Dau day 24) was 85.5%, the “animals with metastases near the primary tumor, out of 8 animals” value ([5]; control 7 out of 8) was 1 and the “decrease of liver/body weight ratio in comparison to control” value ([5]; free Dau 1 mg/kg 3 treatments, p < 0.05) was 14.5%. The “inhibition of weight of metastases in comparison to control” value ([5]; metastases near the primary tumor) was 78.3%, the “tumor weight, percentage of control” value ([5]; percentage printed in Fig. 6b, conjugates day 27, Dau day 24) was 32.3% and the “weight of metastases, percentage of control” value ([5]; percentage printed in Fig. 6d) was 21.7%. For the same compound, the “proliferation index, percentage of control” value [6] was 98.2%, the “proliferation index, percentage of control” value ([7]; percentage printed in Fig. 7b) was 88.8% and the “inhibition of proliferation (KI-67 proliferation index) compared to control” value ([7]; significant) was 11.2%. For the same compound, the “blood vessel density, percentage of control” value [8] was 81.4% and the “blood vessel density, percentage of control” value [9] was 62.0%.
